From patent US20240150839A1, “METHODS FOR PREDICTING RESPONSIVENESS OF PROSTATE CANCER PATIENTS TO PARP INHIBITORS” (Memorial Sloan Kettering Cancer Center, priority 2019, published 2024)

Columns and labels:
Format in all cases: cell-based, human
[1] = test system: BRCA2-null LNCaP cells; experiment: Cell growth (BrdU, crystal violet, MTT) of BRCA2 CRISPR-edited LNCaP cells with enzalutamide; settings: BRCA2-null LNCaP vs scr control; complete medium, 7 days (FIGS. 1E, 7D, 7F)
Experimental: Cells infected with scrambled (scr) gRNA were used as a negative control. Cas9 and RHoGDI served as loading controls. […] Nuclei were stained with DAPI (blue). […] P-values were determined by Student's t-test. ***P<0.001. […] Equivalent volume of DMSO was used as placebo treatment. Cell growth was measured by BRDU incorporation assay (see Example 1) (±SD); P-values were determined by Student's t-test.***P<0.001. […] Parental LAPC4 cells were transiently transfected with BRCA2-specific SMARTpool siRNA for 96 hours. Total RNA was isolated, and BRCA2 mRNA was analyzed by qPCR. Scrambled SMARTpool siRNA-transfected cells were used as control (top). […] Cell growth was measured by MTT assay; SD, p-values were determined by Student's t-test. […]
Cells infected with scrambled (scr) gRNA were used as control. […] Genotypes are detected by PCR amplification followed by being treated with T7 endonuclease. […] Cell growth was measured by MTT assay (see Example 1); SD, P-values determined by Student's t-test. *P<0.05, **P<0.01, ***P<0.001. […] Cell growth was measured by crystal violet staining assay (see Example 1) (±SD); P-values determined by Student's t-test. […] Cell growth was measured by MTT assay (see Example 1) (±SD); P-values determined by Student's t-test. […] Total RNA was isolated, and BRCA2 mRNA was analyzed by qPCR. […] Cell growth was measured by MTT assay; SD, P-values determined by Student's t-test. […]

[2] = test system: BRCA2 SMARTpool siRNA-transfected LNCaP cells; experiment: MTT cell growth of BRCA2 siRNA-transfected LNCaP cells with enzalutamide; settings: BRCA2 siRNA LNCaP vs scrambled siRNA; ENZ 20 μM, 96 hours post transfection (FIG. 7G)
Experimental: Cells infected with scrambled (scr) gRNA were used as control. Equal amount of proteins was loaded in WedgeWell 6% gel and western blot was performed. ˜400 kDa BRCA2 band is indicated by arrow. GAPDH served as loading controls for western blot and qPCR. […] Genotypes are detected by PCR amplification followed by being treated with T7 endonuclease. Wt and mutant BRCA2 are indicated by red and green arrows, respectively. […] Equivalent volume of DMSO was used as placebo treatment. Cell growth was measured by MTT assay (see Example 1); SD, P-values determined by Student's t-test. *P<0.05, **P<0.01, ***P<0.001. […] Cell growth was measured by crystal violet staining assay (see Example 1) (±SD); P-values determined by Student's t-test. […] Cell growth was measured by MTT assay (see Example 1) (±SD); P-values determined by Student's t-test. […] Total RNA was isolated, and BRCA2 mRNA was analyzed by qPCR. […] Cell growth was measured by MTT assay; SD, P-values determined by Student's t-test. […]
(§1) Cell Proliferation Assay by MTT, BrdU and Crystal Violet. […] MTT crystals were dissolved in isopropanol and absorbance was measured in a BioTek plate reader at […] and represented graphically.

[3] = test system: BRCA2 SMARTpool siRNA-transfected LAPC4 cells; experiment: MTT cell growth of BRCA2 siRNA-transfected LAPC4 cells with enzalutamide; settings: BRCA2 siRNA LAPC4 vs scrambled siRNA; ENZ 20 μM, 72 hours after transfection (FIG. 1F)
Experimental: Cells infected with scrambled (scr) gRNA were used as a negative control. Cas9 and RHoGDI served as loading controls. […] Nuclei were stained with DAPI (blue). […] P-values were determined by Student's t-test. ***P<0.001. […] Equivalent volume of DMSO was used as placebo treatment. Cell growth was measured by BRDU incorporation assay (see Example 1) (±SD); P-values were determined by Student's t-test.***P<0.001. […] Parental LAPC4 cells were transiently transfected with BRCA2-specific SMARTpool siRNA for 96 hours. Total RNA was isolated, and BRCA2 mRNA was analyzed by qPCR. Scrambled SMARTpool siRNA-transfected cells were used as control (top). BRCA2- or scrambled SMARTpool siRNA-transfected LAPC4 cells were cultured in charcoal-stripped medium (CSS) or complete medium supplemented with enzalutamide (ENZ; 20 μM) for 72 hours after transfection (bottom). Equivalent volume of DMSO was used as placebo treatment. Cell growth was measured by MTT assay; SD, p-values were determined by Student's t-test. […] Control and CRISPR-edited LNCaP cells (10^3 cells/well) were mixed with Matrigel, and 3D cell cultures (organoids) were grown for 7 days in androgen-depleted, growth factor-enriched media. […]
as §1

[4] = test system: BRCA2-null LNCaP cells; experiment: MTT cell growth of BRCA2 CRISPR-edited LNCaP cells with PARP inhibitors or cisplatin; settings: BRCA2 knockout LNCaP vs control gRNA (scr) cells; complete medium, 6 days (FIG. 7C)
Experimental: Cells infected with scrambled (scr) gRNA were used as control. Equal amount of proteins was loaded in WedgeWell 6% gel and western blot was performed. ˜400 kDa BRCA2 band is indicated by arrow. GAPDH served as loading controls for western blot and qPCR. […] Genotypes are detected by PCR amplification followed by being treated with T7 endonuclease. Wt and mutant BRCA2 are indicated by red and green arrows, respectively. […] Equivalent volume of DMSO was used as placebo treatment. Cell growth was measured by MTT assay (see Example 1); SD, P-values determined by Student's t-test. *P<0.05, **P<0.01, ***P<0.001. FIGS. 7D-7E show the growth curve (FIG. 7D) and a bar graph (FIG. 7E) representing the cell growth of LNCaP BRCA2 CRISPR-edited and non-targeting control gRNA (scr) infected cells in complete medium supplemented with enzalutamide (ENZ; indicated concentration) for 7 days or charcoal-stripped medium (CSS) for 5 days, respectively. Equivalent volume of DMSO was used as placebo treatment. Cell growth was measured by crystal violet staining assay (see Example 1) (±SD); P-values determined by Student's t-test. […] Equivalent volume of DMSO was used as placebo treatment. Cell growth was measured by MTT assay (see Example 1) (±SD); P-values determined by Student's t-test. […] Total RNA was isolated, and BRCA2 mRNA was analyzed by qPCR. […] Cell growth was measured by MTT assay; SD, P-values determined by Student's t-test.
To generate BRCA2 knockout RWPE1 cells, BRCA2 gRNA2 was cloned into LentiCRISPRv2-GFP backbone which constitutively expresses Cas9 and GFP. Lentiviral infected cells were selected by FACS sorting for GFP positive cells (twice) and analyzed by western blot. […] Loss of BRCA2 in the pooled populations of LNCaP cells was analyzed by western blot using BRCA2-specific antibodies and this pooled population of cells was used for the following experiments. […]
as §1

[5] = test system: 22RV1 cells; experiment: MTT cell growth with PARPi or cisplatin; settings: 22RV1, BRCA2 T3033Nfs*11, RB1-wt; cisplatin 500 nM, talazoparib 5 nM, 6 days (FIG. 11D)
Experimental: The ploidy of each cell line is indicated. […] Equivalent volume of DMSO was used as placebo treatment. Cell growth was measured by MTT assay (see Example 1); SD, each point indicates the MTT count of each well of 96-well plate, P-values determined by Student's t-test. **P<0.01, ****P<0.0001. […] Cell Proliferation Assay by MTT, BrdU and Crystal Violet. For MTT assay, cells were plated at 2.5×10^3 per well in 96-well plates in complete media (10% FBS) or media supplemented with 10% charcoal-stripped serum. Cells were either treated with DMSO or with indicated inhibitors. After indicated times, cells were incubated in 0.5 mg/mL MTT (Invitrogen) for 1 hour at 37° C. MTT crystals were dissolved in isopropanol and absorbance was measured in a BioTek plate reader at […] and represented graphically.

Structure (SMILES)	resistance to enzalutamide (cell growth) [1]	growth in complete media supplemented with enzalutamide [2]	growth in complete media supplemented with enzalutamide [3]	sensitivity (cell growth, MTT) [4]	sensitivity (cell growth, MTT) [5]
CNC(=O)c1ccc(N2C(=S)N(c3ccc(C#N)c(C(F)(F)F)c3)C(=O)C2(C)C)cc1F [enzalutamide]	relative resistance	resistance to androgen depletion	resistance to androgen depletion		
CNCc1ccc(-c2[nH]c3cc(F)cc4c3c2CCNC4=O)cc1 [rucaparib]				more sensitivity	
N.N.[Cl][Pt][Cl] [cisplatin]				enhanced sensitivity	sensitivity
